# Measured values from US10604739B2, “Cardiomyocyte production” (Cellular Dynamics International, Inc., priority 2009, dated 2020).
# Assays:
# Assay type in all cases: cell-based, human
# iPS cells [1] = test: H1152 duration and aggregate formation, Experiment 2: cardiomyocyte differentiation; design: Average Cardiomyocyte Yield: unit not given here; conditions: for Average # cTnT Cells/Liter (in millions) / Average % Troponin T+ / Average Cardiomyocyte Yield / Average Cell Count per flask (in millions) / Average ratio iPS to CM: day 14, T25
# Protocol: (§1) The purpose of this Example was to see the effect of 1 day or 2 day treatment with the compound on Cardiomyocyte development. Initial testing with H1152 included the compound in the media: 1 μM on day one with the TeSR media and 0.5 μM on day 2 with the compound in the aggregate transition media. After adopting a new method which included the H1152 compound for 1 day at 1 μM only, there appeared to be a loss of efficiency with the initial cell survival, resulting in this study to determine if extended H1152 would increase cell survival without a negative impact on […]. Cardiomyocyte differentiation conditions and experimental parameters were summarized in Tables 11-12 and 13-14 for Experiments 1 and 2, respectively. Critical reagents and materials were obtained as described in the previous example.
# IPS 6.1 cells = test: Effect of different concentrations of H1152 on cell survival; conditions: one day dose, FIG. 28
# Protocol: FIG. 28: Effect of different concentrations of H1152 on cell survival with one day dose of H1152 on IPS 6.1 cells.
# Effect of different concentrations of H1152 was also tested on cell survival with one day dose of H1152 on IPS 6.1 cells (FIG. 28).
# iPS cells [2] = test: H1152 duration and aggregate formation, Experiment 1: cardiomyocyte differentiation; design: Average Cardiomyocyte Yield: unit not given here; conditions: for Average # cTnT Cells/Liter (in millions) / Average % Troponin T+ / Average Cardiomyocyte Yield / Average Cell Count per flask (in millions) / Average ratio iPS to CM: day 14, T25
# Protocol: as §1
# [3] = 3e5 cells/ml seeding, H1152 1 μM 24 hour exposure
# [4] = 3e5 cells/ml seeding, H1152 1 μM 48 hour exposure
# [5] = 5e5 cells/ml seeding, H1152 1 μM 24 hour exposure
# [6] = 5e5 cells/ml seeding, H1152 1 μM 48 hour exposure
# [7] = 10e5 cells/ml seeding, H1152 1 μM 24 hour exposure
# [8] = 10e5 cells/ml seeding, H1152 1 μM 48 hour exposure
# [9] = 15e5 cells/ml seeding, H1152 1 μM 24 hour exposure
# [10] = 15e5 cells/ml seeding, H1152 1 μM 48 hour exposure
# [11] = 7e5 cells/ml seeding, H1152 1 μM 24 hour exposure
# [12] = 7e5 cells/ml seeding, H1152 1 μM 48 hour exposure
smiles,measurement,setting,value
Cc1cncc2cccc(S(=O)(=O)N3CCCNC[C@@H]3C)c12 [H1152],Average # cTnT Cells/Liter (in millions),iPS cells [1]; [3],11.06 ± 9.07 millions
same,Average % Troponin T+,iPS cells [1]; [3],12.71 ± 1.72%
same,Average Cardiomyocyte Yield,iPS cells [1]; [3],66383 ± 54471
same,Average Cell Count per flask (in millions),iPS cells [1]; [3],0.57 ± 0.54 millions
same,Average ratio iPS to CM,iPS cells [1]; [3],33 ± 20
same,Average # cTnT Cells/Liter (in millions),iPS cells [1]; [4],34.67 ± 15.81 millions
same,Average % Troponin T+,iPS cells [1]; [4],7.99 ± 2.24%
same,Average Cardiomyocyte Yield,iPS cells [1]; [4],208066 ± 94874
same,Average Cell Count per flask (in millions),iPS cells [1]; [4],2.52 ± 0.51 millions
same,Average ratio iPS to CM,iPS cells [1]; [4],8 ± 4
same,Average # cTnT Cells/Liter (in millions),iPS cells [1]; [5],8.84 ± 6.01 millions
same,Average % Troponin T+,iPS cells [1]; [5],9.98 ± 2.40%
same,Average Cardiomyocyte Yield,iPS cells [1]; [5],53055 ± 36109
same,Average Cell Count per flask (in millions),iPS cells [1]; [5],0.52 ± 0.35 millions
same,Average ratio iPS to CM,iPS cells [1]; [5],67 ± 49
same,Average # cTnT Cells/Liter (in millions),iPS cells [1]; [6],38.40 ± 23.14 millions
same,Average % Troponin T+,iPS cells [1]; [6],5.20 ± 3.33%
same,Average Cardiomyocyte Yield,iPS cells [1]; [6],230454 ± 138874
same,Average Cell Count per flask (in millions),iPS cells [1]; [6],4.56 ± 0.48 millions
same,Average ratio iPS to CM,iPS cells [1]; [6],14 ± 7
same,Average # cTnT Cells/Liter (in millions),iPS cells [1]; [7],14.18 ± 7.34 millions
same,Average % Troponin T+,iPS cells [1]; [7],5.42 ± 1.08%
same,Average Cardiomyocyte Yield,iPS cells [1]; [7],85129 ± 44092
same,Average Cell Count per flask (in millions),iPS cells [1]; [7],1.54 ± 063 millions
same,Average ratio iPS to CM,iPS cells [1]; [7],72 ± 42
same,Average # cTnT Cells/Liter (in millions),iPS cells [1]; [8],16.03 ± 13.63 millions
same,Average % Troponin T+,iPS cells [1]; [8],1.40 ± 1.45%
same,Average Cardiomyocyte Yield,iPS cells [1]; [8],96206 ± 81824
same,Average Cell Count per flask (in millions),iPS cells [1]; [8],7.84 ± 1.14 millions
same,Average ratio iPS to CM,iPS cells [1]; [8],77 ± 44
same,Average # cTnT Cells/Liter (in millions),iPS cells [1]; [9],28.54 ± 10.83 millions
same,Average % Troponin T+,iPS cells [1]; [9],6.48 ± 2.42%
same,Average Cardiomyocyte Yield,iPS cells [1]; [9],171264 ± 65034
same,Average Cell Count per flask (in millions),iPS cells [1]; [9],2.63 ± 0.14 millions
same,Average ratio iPS to CM,iPS cells [1]; [9],48 ± 17
same,Average # cTnT Cells/Liter (in millions),iPS cells [1]; [10],28.13 ± 30.17 millions
same,Average % Troponin T+,iPS cells [1]; [10],2.36 ± 2.03%
same,Average Cardiomyocyte Yield,iPS cells [1]; [10],168815 ± 181030
same,Average Cell Count per flask (in millions),iPS cells [1]; [10],6.16 ± 1.31 millions
same,Average ratio iPS to CM,iPS cells [1]; [10],97 ± 85
same,Effect of increasing H1152 exposure duration to 48 hours on cTnT yield,"iPS cells [1]; Experiment 2, cultures initially seeded with 3e5 and 5e5 cells/mL, 14 days",increased cTnT yield in the cultures initially seeded with 3e5 and 5e5 cells/mL
same,Optimal concentration for aggregate formation,IPS 6.1 cells,1 µM
same,Average # cTnT Cells/Liter (in millions),iPS cells [2]; [3],2.91 ± 1.27 millions
same,Average % Troponin T+,iPS cells [2]; [3],6.83 ± 0.26%
same,Average Cardiomyocyte Yield,iPS cells [2]; [3],17445 ± 7677
same,Average Cell Count per flask (in millions),iPS cells [2]; [3],0.25 ± 0.11 millions
same,Average ratio iPS to CM,iPS cells [2]; [3],99 ± 45
same,Average # cTnT Cells/Liter (in millions),iPS cells [2]; [4],9.92 ± 0.25 millions
same,Average % Troponin T+,iPS cells [2]; [4],4.40 ± 1.00%
same,Average Cardiomyocyte Yield,iPS cells [2]; [4],59575 ± 1514
same,Average Cell Count per flask (in millions),iPS cells [2]; [4],1.39 ± 0.28 millions
same,Average ratio iPS to CM,iPS cells [2]; [4],25 ± 1
same,Average # cTnT Cells/Liter (in millions),iPS cells [2]; [5],3.02 ± 1.66 millions
same,Average % Troponin T+,iPS cells [2]; [5],6.26 ± 3.40%
same,Average Cardiomyocyte Yield,iPS cells [2]; [5],18123 ± 10004
same,Average Cell Count per flask (in millions),iPS cells [2]; [5],0.46 ± 0.48 millions
same,Average ratio iPS to CM,iPS cells [2]; [5],180 ± 119
same,Average # cTnT Cells/Liter (in millions),iPS cells [2]; [6],19.52 ± 8.01 millions
same,Average % Troponin T+,iPS cells [2]; [6],3.37 ± 1.12%
same,Average Cardiomyocyte Yield,iPS cells [2]; [6],117137 ± 48094
same,Average Cell Count per flask (in millions),iPS cells [2]; [6],3.41 ± 0.47 millions
same,Average ratio iPS to CM,iPS cells [2]; [6],24 ± 11
same,Average # cTnT Cells/Liter (in millions),iPS cells [2]; [11],6.54 ± 0.91 millions
same,Average % Troponin T+,iPS cells [2]; [11],5.41 ± 1.58%
same,Average Cardiomyocyte Yield,iPS cells [2]; [11],39272 ± 5494
same,Average Cell Count per flask (in millions),iPS cells [2]; [11],0.77 ± 0.29 millions
same,Average ratio iPS to CM,iPS cells [2]; [11],90 ± 12
same,Average # cTnT Cells/Liter (in millions),iPS cells [2]; [12],11.71 ± 6.74 millions
same,Average % Troponin T+,iPS cells [2]; [12],2.23 ± 0.28%
same,Average Cardiomyocyte Yield,iPS cells [2]; [12],70299 ± 40479
same,Average Cell Count per flask (in millions),iPS cells [2]; [12],3.19 ± 1.81 millions
same,Average ratio iPS to CM,iPS cells [2]; [12],72 ± 58
same,Average # cTnT Cells/Liter (in millions),iPS cells [2]; [7],8.53 ± 3.67 millions
same,Average % Troponin T+,iPS cells [2]; [7],3.29 ± 2.73%
same,Average Cardiomyocyte Yield,iPS cells [2]; [7],51174 ± 22025
same,Average Cell Count per flask (in millions),iPS cells [2]; [7],1.95 ± 0.91 millions
same,Average ratio iPS to CM,iPS cells [2]; [7],116 ± 66
same,Average # cTnT Cells/Liter (in millions),iPS cells [2]; [8],37.33 ± 11.90 millions
same,Average % Troponin T+,iPS cells [2]; [8],4.70 ± 1.08%
same,Average Cardiomyocyte Yield,iPS cells [2]; [8],224015 ± 71410
same,Average Cell Count per flask (in millions),iPS cells [2]; [8],4.69 ± 0.64 millions
same,Average ratio iPS to CM,iPS cells [2]; [8],24 ± 9
same,Average # cTnT Cells/Liter (in millions),iPS cells [2]; [9],13.35 ± 5.17 millions
same,Average % Troponin T+,iPS cells [2]; [9],2.05 ± 0.89%
same,Average Cardiomyocyte Yield,iPS cells [2]; [9],80131 ± 31034
same,Average Cell Count per flask (in millions),iPS cells [2]; [9],4.01 ± 0.46 millions
same,Average ratio iPS to CM,iPS cells [2]; [9],105 ± 43
same,Average # cTnT Cells/Liter (in millions),iPS cells [2]; [10],49.87 ± 21.23 millions
same,Average % Troponin T+,iPS cells [2]; [10],4.84 ± 1.61%
same,Average Cardiomyocyte Yield,iPS cells [2]; [10],299246 ± 127411
same,Average Cell Count per flask (in millions),iPS cells [2]; [10],6.16 ± 1.31 millions
same,Average ratio iPS to CM,iPS cells [2]; [10],28 ± 10
same,Effect of increasing H1152 exposure duration to 48 hours on cTnT yield,"iPS cells [2]; Experiment 1, each cell density condition, 14 days",increased cTnT yield in each cell density condition
same,Cell survival,"iPS cells [2]; two day treatment at 1 μM, each of the experiments",significant increase in the cell survival
